According to paper PMC11591356, “Immunomodulatory Effects of the Tobacco Defensin NaD1” (Antibiotics, 2024):
Ends that are not written are not given here.

Tested on: THP-1-derived macrophages
Assay: ELISA assay of cytokine production by THP-1-derived macrophages
Type: cell-based, human
Protocol: THP-1 (ATCC TIB-202) cells were thawed and cultured in complete RPMI-1640, containing 10% FBS (Capricorn Scientific) and 1×AA solution in CO2-intubator. Monocytic THP-1 cells were differentiated into resting M0 macrophages by stimulation for 24 h with 100 ng/mL phorbol 12-myristate 13-acetate (PMA) in complete RPMI-1640. Then, the attached macrophage-like cells were washed out with culture medium without serum and incubated for another 48 h in PMA-free complete culture medium with 10% HS and 1×AA solution.
THP-1-derived macrophages were seeded into the wells of a 24-well plate at a density of 2.7 × 10^5 cells/well in complete RPMI-1640 with 10% HS and 1×AA solution. Then, 24 h later, the culture medium was replaced by the fresh complete RPMI-1640 containing lipopolysaccharide from Escherichia coli 0111:B4 (LPS, Sigma, St. Louis, MO, USA) or zymosan from the cell wall of Saccharomyces cerevisiae (Serva, Heidelberg, Germany) at concentrations of 1 or 10 μg/mL, respectively; antimicrobial peptides NaD1, Psd1, LL-37 or HBD2 at concentrations of 2 or 0.2 µM; and combinations of antimicrobial peptides with LPS or zymosan at the same concentrations. Insoluble zymosan was resuspended in sterile water and sonicated twice for 30 s; after that, the stock solution was heated to 80 °C for 20 min. Peptides were added 2 h before stimulation with LPS and zymosan. After that, PAMPs solutions were added and the cells were cultured for 24 h. Complete RPMI-1640 only was used in the control wells. Culture supernatants were collected and stored at −70 °C prior to the cytokines’ assessment.
The production of pro- and anti-inflammatory cytokines IL-1β, IL-6, TNF-α and IL-10 by stimulated and non-stimulated THP-1-derived macrophages were estimated by using ELISA kits (Vector-Best, Koltsovo, Russia). Briefly, 96-well plates with adsorbed monoclonal antibodies to the corresponding cytokine were used. Undiluted or diluted 5, 20 or 80 times in the case of IL-10, TNF-α and IL-1β or IL-6, respectively, culture supernatants from the wells of 24-well plates were taken for analysis. Biotinylated polyclonal antibodies to cytokines, streptavidin conjugated to HRP and TMB substrate were further used for the detection of immune complexes. A panel of calibration solutions containing different concentrations of cytokines was used in each experiment. Experiments were performed using two biological and two technical repeats. The release of the cytokines in the control and experimental samples was compared with an unpaired two-sample t-test using GraphPad Prism v.8.0.1 (GraphPad Software, Inc., San Diego, CA, USA). The p values ≤ 0.05 were considered significant.

[1] = peptide 2 µM 2 h before LPS 1 μg/mL, 24 h, vs LPS alone
[2] = peptide 2 µM 2 h before zymosan 10 μg/mL, 24 h, vs zymosan alone

Substance: NaD1: Recombinant tobacco floral defensin NaD1 (UNIPROT Q8GTM0), obtained by heterologous expression in E. coli; FITC-labeled in the permeability assay (RECKTESNTFPGICITKPPCRKACISEKFTDGHCSKILRRCLCTKPC; cysteine pairing not given here; also: FITC label; UniProt Q8GTM0 26-72, looked up)
- IL-10 production by M0 and M1 macrophages (elevation from 150 (without NaD1)): 180 pg/mL
- IL-1β production by M0 and M1 macrophages (increase from 4500 (without NaD1)): 6500 pg/mL
- LPS-induced IL-1β production [1]: increased the LPS-induced production of IL-1β
- LPS-induced IL-10 production [1]: increased the LPS-induced production of IL-10
- LPS-induced TNF-α secretion [1]: reduced the LPS-induced secretion of TNF-α
- IL-1β production in the presence of zymosan [2]: induced the production of IL-1β (p <0.0001) more strongly than without this PAMP
- IL-10 production in the presence of zymosan [2]: increased the production of IL-10 in the presence of zymosan
- IL-10 production, unstimulated macrophages (peptide 2 µM alone, vs unstimulated control): induced the production of IL-10
- IL-1β production, unstimulated macrophages (peptide 2 µM alone, vs unstimulated control, two biological and two technical repeats): significantly increased IL-1β level
